Assays:
[1] = system: HBV Cp; test: Capsid assembly assay (fluorescence quenching); details: 10 μM compound, control reactions with no drug show 25±5% assembly
[2] = system: AD38 cells; test: Activity of test compounds on viral production from AD38 cells (qPCR viral load); assay type: cell-based, HBV; parameters: key: (+) depicting meets criteria for significant activity; (++) depicting exceeds criteria; details: 5 days, supernatant qPCR
Method: AD38 cells grown in a 175 cm flash with Growth Medium (DMEM/F12 (1:1) (cat#SH30023.01, Hyclone, 1× Pen/step (cat#: 30-002-CL, Mediatech, Inc), 10% FBS (cat#: 101, Tissue Culture Biologics), 250 μg/mL G418 (cat#: 30-234-CR, Mediatech, Inc), 1 μg/mL Tetracycline (cat#: T3325, Teknova)) were detached with 0.25% trypsin. Tetracycline-free treatment medium (15 mL DMEM/F12 (1:1) (cat#SH30023.01, Hyclone, 1× Pen/step (cat#: 30-002-CL, Mediatech, Inc), with 2% FBS, Tet-system approved (cat#: 631106, Clontech) were then added to mix and spun at 1300 rpm for 5 min. Pelleted cells were then re-suspended/washed with 50 mL of 1×PBS 2 times and 10 mL treatment medium one time. AD38 cells were then re-suspended with 10 mL of treatment medium and counted. Wells of a collagen coated 96-well NUNC microtiter plate were seeded at 50,000/well in 180 μL of treatment medium, and 20 μL of either 10% DMSO (Control) or a 10× solution of test compound in 10% DMSO in treatment media was added for as final compound concentration 1, 3, or 10 μM (1.0% final [DMSO]) and plates were incubated for 5 days at 37° C.
Subsequently viral load production was assayed by quantitative PCR of the core sequence. Briefly, 5 μL of clarified supernatant was added to a PCR reaction mixture that contained forward primers HBV-f 5′-[…]-3′, Reverse primers HBV-r 5′-[…]-3′ and Fluorescent TaqMan™ Probes HBV-probe 5′-FAM/[…]/ZEN/[…]/31ABkFQ-3′ in Quanta Biosciences PerfeCTa® qPCR Toughmix®, and was subsequently on an Applied Biosystems VIIA7 in a final volume of 20 μL. The PCR mixture was incubated at 45° C. for 5 minutes, then 95° C. for 10 min, followed by 40 cycles of 10 seconds at 95° C. and 20 seconds at 60° C. Viral load was quantitated against known standards by using ViiA™ 7 Software. Viral load in the supernatant from wells with treated cells were compared against viral load in supernatant from DMSO control wells (≥3 per plate). In Table 4, concentrations of test compound causing reductions in viral load greater than at least 3 standard deviations from the DMSO controls across all plates were considered active, with (+) depicting meets criteria for significant activity, and (++) depicting exceeds criteria.

Row | Compound | % Capsid formation at 24 h (10 μM) [1] | reduction in viral load vs DMSO controls ([2]; test concentration 3 μM) | reduction in viral load vs DMSO controls ([2]; test concentration 10 μM) | reduction in viral load vs DMSO controls ([2]; test concentration 1 μM)
1 | Cc1ccc(Nc2cc(C)nc(N3CCN(S(=O)(=O)c4ccc(C)cc4)CC3)n2)cc1 [compound 1] | 95% | ++ | ++ | 
2 | Cc1ccc(Nc2cc(C)nc(N3CCN(S(=O)(=O)c4ccc(OC(F)(F)F)cc4)CC3)n2)cc1 [compound 2] | 83% |  |  | 
3 | Cc1ccc(Nc2cc(C)nc(N3CCN(S(=O)(=O)c4ccc(Cl)cc4)CC3)n2)cc1 [compound 3] | 94% | ++ | ++ | ++
4 | Cc1ccc(Nc2cc(C)nc(N3CCN(S(=O)(=O)c4ccc(O)cc4)CC3)n2)cc1 [compound 4] | 99% |  |  | 
5 | CCc1ccc(S(=O)(=O)N2CCN(c3nc(C)cc(Nc4ccc(C)cc4)n3)CC2)cc1 [compound 5] | 91% | ++ | ++ | 
6 | Cc1ccc(Nc2cc(C)nc(N3CCN(S(=O)(=O)c4ccc(C(C)C)cc4)CC3)n2)cc1 [compound 6] | 92% | ++ | ++ | 
7 | Cc1ccc(Nc2cc(C)nc(N3CCN(S(=O)(=O)c4cccc(C)c4)CC3)n2)cc1 [compound 7] | 79% | ++ | ++ | +
8 | CCOc1ccc(S(=O)(=O)N2CCN(c3nc(C)cc(Nc4ccc(C)cc4)n3)CC2)cc1 [compound 8] | 98% | ++ | ++ | 
9 | CCCCOc1ccc(S(=O)(=O)N2CCN(c3nc(C)cc(Nc4ccc(C)cc4)n3)CC2)cc1 [compound 9] | 93% |  |  | 
10 | CC(=O)Nc1ccc(S(=O)(=O)N2CCN(c3nc(C)cc(Nc4ccc(C)cc4)n3)CC2)cc1 [compound 10] | 96% | ++ | ++ | +
11 | COc1ccc(S(=O)(=O)N2CCN(c3nc(C)cc(Nc4ccc(C)cc4)n3)CC2)cc1 [compound 11] | 89% | ++ | ++ | 
12 | Cc1ccc(Nc2cc(C)nc(N3CCN(S(=O)(=O)c4ccccc4)CC3)n2)cc1 [compound 12] | 73% |  |  | 
13 | Cc1ccc(Nc2cc(C)nc(N3CCN(S(=O)(=O)c4ccc(F)cc4)CC3)n2)cc1 [compound 13] | 60% |  |  | 
14 | Cc1ccc(Nc2cc(C)nc(N3CCN(S(=O)(=O)c4ccccc4F)CC3)n2)cc1 [compound 14] | 67% |  |  | 
15 | Cc1ccc(Nc2cc(C)nc(N3CCN(S(=O)(=O)c4cccc(F)c4)CC3)n2)cc1 [compound 15] | 76% | ++ | ++ | 
16 | COc1cccc(S(=O)(=O)N2CCN(c3nc(C)cc(Nc4ccc(C)cc4)n3)CC2)c1 [compound 16] | 95% | ++ | ++ | ++
17 | Cc1ccc(Nc2cc(C)nc(N3CCN(S(=O)(=O)c4ccc5ccccc5c4)CC3)n2)cc1 [compound 17] | 70% |  |  | 
18 | COc1ccc(S(=O)(=O)N2CCN(c3nc(C)cc(Nc4ccc(C)cc4)n3)CC2)cc1OC [compound 18] | 71% | ++ | ++ | 
19 | Cc1ccc(Nc2cc(C)nc(N3CCN(S(=O)(=O)c4ccc5cc(N(C)C)ccc5c4)CC3)n2)cc1 [compound 19] | 83% |  |  | 

Row | Compound | % Capsid formation at 24 h (10 μM) [1] | reduction in viral load vs DMSO controls ([2]; test concentration 3 μM) | reduction in viral load vs DMSO controls ([2]; test concentration 10 μM) | reduction in viral load vs DMSO controls ([2]; test concentration 1 μM)
20 | CCCCc1ccc(S(=O)(=O)N2CCN(c3nc(C)cc(Nc4ccc(C)cc4)n3)CC2)cc1 [compound 20] | 90% |  |  | 
21 | CC(C)c1cc(Nc2ccc(F)cc2)nc(N2CCN(S(=O)(=O)c3ccccc3)CC2)n1 [compound 21] | 71% |  |  | 
22 | Cc1ccc(S(=O)(=O)N2CCN(c3nc(Nc4ccc(F)cc4)cc(C(C)C)n3)CC2)cc1 [compound 22] | 80% |  |  | 
23 | Cc1ccc(Nc2cc(C)nc(N3CCN(S(=O)(=O)c4ccc(N(C)C)cc4)CC3)n2)cc1 [compound 23] | 88% | ++ | ++ | +
24 | CNc1ccc(S(=O)(=O)N2CCN(c3nc(C)cc(Nc4ccc(C)cc4)n3)CC2)cc1 [compound 24] | 96% | ++ | ++ | 
25 | Cc1ccc(Nc2cc(C)nc(N3CCN(S(=O)(=O)c4ccc(N)cc4)CC3)n2)cc1 [compound 26] | 96% | ++ | ++ | 
26 | Cc1ccc(Nc2cc(C)nc(N3CCN(S(=O)(=O)c4ccc(OC(C)(C)C)cc4)CC3)n2)cc1 [compound 27] | 84% | ++ | ++ | 
27 | Cc1ccc(Nc2cc(C)nc(N3CCN(S(=O)(=O)c4ccc(OC(F)F)cc4)CC3)n2)cc1 [compound 28] | 96% | ++ | ++ | ++
28 | CCc1cc(Nc2ccc(C)cc2)nc(N2CCN(S(=O)(=O)c3ccc(OC)cc3)CC2)n1 [compound 29] | 94% | ++ | ++ | ++
29 | COc1ccc(S(=O)(=O)N2CCN(c3nc(Nc4ccc(C)cc4)cc(C(C)C)n3)CC2)cc1 [compound 30] | 87% |  |  | 
30 | COc1ccc(S(=O)(=O)N2CCN(c3nc(Nc4ccc(C)cc4)cc(C(C)(C)C)n3)CC2)cc1 [compound 31] | 87% | ++ | ++ | 
31 | COc1ccc(S(=O)(=O)N2CCN(c3nc(C)cc(Nc4ccc(OC(F)(F)F)cc4)n3)CC2)cc1 [compound 36] | 78% |  |  | 
32 | COc1ccc(S(=O)(=O)N2CCN(c3nc(C)cc(Nc4ccc(F)cc4)n3)CC2)cc1 [compound 38] | 75% |  |  | 
33 | COc1ccc(S(=O)(=O)N2CCN(c3nc(C)cc(Nc4ccccc4)n3)CC2)cc1 [compound 39] | 56% |  |  | 
34 | COc1ccc(Nc2cc(C)nc(N3CCN(S(=O)(=O)c4ccc(OC)cc4)CC3)n2)cc1 [compound 41] | 84% |  |  | 
35 | COc1ccc(Nc2cc(C)nc(N3CCN(S(=O)(=O)c4ccc(OC)cc4)CC3)n2)cc1 [compound 43] | 97% |  |  | 
36 | COc1cccc(S(=O)(=O)N2CCN(c3nc(C)cc(Nc4ccc(F)cc4)n3)CC2)c1 [compound 44] | 92% |  |  | 
37 | COc1ccc(Nc2cc(C)nc(N3CCN(S(=O)(=O)c4ccc(OC)c(OC)c4)CC3)n2)cc1 [compound 45] | 87% |  |  | 
